These results are taken from ChEMBL document CHEMBL1201862, “PubChem BioAssay data set” (2004).

The structures appear in SMILES notation. The source made the active and inactive calls.

The target of one test is T1, Caspase-6 (Homo sapiens, UniProt P55212).
T1 sequence (P55212 whole entry): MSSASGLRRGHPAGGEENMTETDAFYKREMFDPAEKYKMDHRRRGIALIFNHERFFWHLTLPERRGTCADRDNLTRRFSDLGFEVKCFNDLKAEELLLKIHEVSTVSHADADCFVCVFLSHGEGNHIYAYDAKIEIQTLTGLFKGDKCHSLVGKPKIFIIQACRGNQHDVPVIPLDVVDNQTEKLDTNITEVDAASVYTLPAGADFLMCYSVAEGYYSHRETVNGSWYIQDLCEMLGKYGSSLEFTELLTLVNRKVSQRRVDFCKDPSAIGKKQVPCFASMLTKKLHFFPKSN
Nature of the test: human caspase-6 inhibitors, dose response, biochemical, VEID-R110 fluorescence, cherry-pick (AID 720632).

The target of test [1] is T2, Histone-lysine N-methyltransferase NSD2 (Homo sapiens, UniProt O96028).
T2 sequence (O96028 whole entry): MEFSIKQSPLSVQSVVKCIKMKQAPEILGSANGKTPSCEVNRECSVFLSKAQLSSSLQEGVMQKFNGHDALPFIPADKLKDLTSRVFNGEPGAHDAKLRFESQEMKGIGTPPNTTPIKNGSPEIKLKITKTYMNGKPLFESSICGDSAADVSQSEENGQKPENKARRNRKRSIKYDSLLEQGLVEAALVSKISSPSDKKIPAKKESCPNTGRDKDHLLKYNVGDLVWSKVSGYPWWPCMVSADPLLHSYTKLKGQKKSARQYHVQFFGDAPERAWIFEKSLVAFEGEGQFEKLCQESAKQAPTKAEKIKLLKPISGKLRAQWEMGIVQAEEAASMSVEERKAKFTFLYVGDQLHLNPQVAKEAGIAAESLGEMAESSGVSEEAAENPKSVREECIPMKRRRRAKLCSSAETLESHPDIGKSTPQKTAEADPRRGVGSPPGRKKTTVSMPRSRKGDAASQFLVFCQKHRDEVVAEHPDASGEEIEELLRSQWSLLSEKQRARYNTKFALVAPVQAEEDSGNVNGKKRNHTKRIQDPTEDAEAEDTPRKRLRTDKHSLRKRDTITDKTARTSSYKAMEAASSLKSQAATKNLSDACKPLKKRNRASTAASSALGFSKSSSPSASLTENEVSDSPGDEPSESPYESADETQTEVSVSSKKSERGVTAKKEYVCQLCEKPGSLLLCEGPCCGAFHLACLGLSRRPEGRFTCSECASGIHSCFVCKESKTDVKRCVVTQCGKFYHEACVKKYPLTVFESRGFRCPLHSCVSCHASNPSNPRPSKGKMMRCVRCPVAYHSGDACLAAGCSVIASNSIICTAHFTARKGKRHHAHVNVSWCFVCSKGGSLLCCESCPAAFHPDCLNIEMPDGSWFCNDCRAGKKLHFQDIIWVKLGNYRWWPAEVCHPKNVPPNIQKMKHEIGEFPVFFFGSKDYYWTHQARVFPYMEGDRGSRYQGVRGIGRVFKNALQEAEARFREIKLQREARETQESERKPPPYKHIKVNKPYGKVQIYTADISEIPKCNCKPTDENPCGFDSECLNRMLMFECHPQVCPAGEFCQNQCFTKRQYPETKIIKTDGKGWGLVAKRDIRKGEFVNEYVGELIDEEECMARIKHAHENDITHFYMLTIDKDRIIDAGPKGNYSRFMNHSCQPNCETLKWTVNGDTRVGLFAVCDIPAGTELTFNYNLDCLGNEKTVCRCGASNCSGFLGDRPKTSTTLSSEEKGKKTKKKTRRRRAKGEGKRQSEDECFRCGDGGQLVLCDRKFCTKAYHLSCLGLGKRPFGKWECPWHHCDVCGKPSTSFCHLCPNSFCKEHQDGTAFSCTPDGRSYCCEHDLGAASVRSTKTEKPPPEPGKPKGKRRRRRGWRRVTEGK
The test is classed as biochemical.

Test [2] concerns the target Voltage-gated inwardly rectifying potassium channel KCNH2 (Homo sapiens, UniProt Q12809). The conditions noted are these: Potency.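 Also: confirmatory quantitative high-throughput screen measuring inhibition of hERG channel activity.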
The next test addresses Caspase-7 (Homo sapiens, UniProt P55210). Nature of the test: human caspase-7 inhibitors, dose response, selectivity assay for caspase-6 inhibitor project, biochemical, DEVD-R110 fluorescence, cherry-pick (AID 743295). The test is classed as […].
For a further test, the target named is Genome polyprotein (dengue virus type 2, UniProt P29990). Nature of the test: Dengue-2 NS5 methyltransferase inhibitors, primary screen, biochemical, confirmation dose response (AID 588689). The format is functional.
Another test deals with T3, Protein skinhead-1 (Caenorhabditis elegans, UniProt P34707).
T3 sequence (P34707 whole entry): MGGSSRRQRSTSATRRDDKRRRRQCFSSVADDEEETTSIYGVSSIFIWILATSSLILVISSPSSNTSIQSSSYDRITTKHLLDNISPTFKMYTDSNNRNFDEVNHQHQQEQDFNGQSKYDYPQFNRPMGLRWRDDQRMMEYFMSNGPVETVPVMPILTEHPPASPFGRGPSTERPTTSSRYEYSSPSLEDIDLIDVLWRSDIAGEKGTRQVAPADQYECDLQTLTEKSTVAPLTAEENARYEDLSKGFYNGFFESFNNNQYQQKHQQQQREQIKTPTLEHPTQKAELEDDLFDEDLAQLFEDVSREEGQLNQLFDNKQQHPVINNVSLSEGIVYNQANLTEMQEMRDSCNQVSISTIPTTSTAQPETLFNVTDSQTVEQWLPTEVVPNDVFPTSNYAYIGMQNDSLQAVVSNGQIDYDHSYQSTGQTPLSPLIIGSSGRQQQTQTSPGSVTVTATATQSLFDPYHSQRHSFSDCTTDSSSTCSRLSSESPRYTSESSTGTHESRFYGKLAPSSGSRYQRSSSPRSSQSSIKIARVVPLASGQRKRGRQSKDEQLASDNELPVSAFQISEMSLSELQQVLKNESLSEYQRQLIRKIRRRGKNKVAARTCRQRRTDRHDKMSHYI
The test is classed as functional.

Test [3] deals with Glucose-6-phosphate 1-dehydrogenase (Homo sapiens, UniProt P11413). Nature of the test: human G6PD enzyme inhibitors, dose response, selectivity assay for P. falciparum G6PD inhibitor project, biochemical, fluorescence (AID 504792). The test is classed as functional.
The target of another test is Major prion protein (Homo sapiens, UniProt P04156). The test is classed as functional, cell-based.
Another test concerns the target T4, Caspase-3 (Homo sapiens, UniProt P42574).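 Also: Dose-response selectivity test against caspase-3 for candidate inhibitors of sentrin-specific proteases (SENPs).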
T4 sequence (P42574 whole entry): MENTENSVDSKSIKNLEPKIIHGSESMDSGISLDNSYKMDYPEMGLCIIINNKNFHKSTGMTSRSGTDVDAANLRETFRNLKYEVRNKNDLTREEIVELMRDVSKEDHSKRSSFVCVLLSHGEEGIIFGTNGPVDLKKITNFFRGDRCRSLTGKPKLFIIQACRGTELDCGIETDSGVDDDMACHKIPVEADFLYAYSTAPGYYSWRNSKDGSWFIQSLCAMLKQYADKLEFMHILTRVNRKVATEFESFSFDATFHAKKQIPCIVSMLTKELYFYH
The format is functional.

The target of test [4] is T5, Oxysterols receptor LXR-beta (Homo sapiens, UniProt P55055).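 Also: agonist activity at LXR measured by a cell-based luminescence readout across a dose range, run as a counterscreen for daf-12 agonists; HEK293 cells with Gal4-LXR fusion and GAL4-driven luciferase reporter; potency for activation of Gal4-LXR reporter so compounds are agonists.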
T5 sequence (P55055 whole entry): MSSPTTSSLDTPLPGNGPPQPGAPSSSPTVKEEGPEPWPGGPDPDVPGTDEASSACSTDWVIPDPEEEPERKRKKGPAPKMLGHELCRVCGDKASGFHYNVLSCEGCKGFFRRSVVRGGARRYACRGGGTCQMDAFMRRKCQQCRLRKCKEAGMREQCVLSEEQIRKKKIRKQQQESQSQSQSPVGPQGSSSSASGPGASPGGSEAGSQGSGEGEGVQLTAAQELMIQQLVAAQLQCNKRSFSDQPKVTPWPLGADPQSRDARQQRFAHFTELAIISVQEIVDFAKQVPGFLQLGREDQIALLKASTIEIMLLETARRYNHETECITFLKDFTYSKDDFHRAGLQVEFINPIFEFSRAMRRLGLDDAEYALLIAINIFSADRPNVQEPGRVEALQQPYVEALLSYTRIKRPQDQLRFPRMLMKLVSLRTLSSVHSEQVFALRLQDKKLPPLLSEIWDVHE
The format is functional, cell-based.

Test [5] deals with T6, Sentrin-specific protease 6 (Homo sapiens, UniProt Q9GZR1).
T6 sequence (Q9GZR1 whole entry): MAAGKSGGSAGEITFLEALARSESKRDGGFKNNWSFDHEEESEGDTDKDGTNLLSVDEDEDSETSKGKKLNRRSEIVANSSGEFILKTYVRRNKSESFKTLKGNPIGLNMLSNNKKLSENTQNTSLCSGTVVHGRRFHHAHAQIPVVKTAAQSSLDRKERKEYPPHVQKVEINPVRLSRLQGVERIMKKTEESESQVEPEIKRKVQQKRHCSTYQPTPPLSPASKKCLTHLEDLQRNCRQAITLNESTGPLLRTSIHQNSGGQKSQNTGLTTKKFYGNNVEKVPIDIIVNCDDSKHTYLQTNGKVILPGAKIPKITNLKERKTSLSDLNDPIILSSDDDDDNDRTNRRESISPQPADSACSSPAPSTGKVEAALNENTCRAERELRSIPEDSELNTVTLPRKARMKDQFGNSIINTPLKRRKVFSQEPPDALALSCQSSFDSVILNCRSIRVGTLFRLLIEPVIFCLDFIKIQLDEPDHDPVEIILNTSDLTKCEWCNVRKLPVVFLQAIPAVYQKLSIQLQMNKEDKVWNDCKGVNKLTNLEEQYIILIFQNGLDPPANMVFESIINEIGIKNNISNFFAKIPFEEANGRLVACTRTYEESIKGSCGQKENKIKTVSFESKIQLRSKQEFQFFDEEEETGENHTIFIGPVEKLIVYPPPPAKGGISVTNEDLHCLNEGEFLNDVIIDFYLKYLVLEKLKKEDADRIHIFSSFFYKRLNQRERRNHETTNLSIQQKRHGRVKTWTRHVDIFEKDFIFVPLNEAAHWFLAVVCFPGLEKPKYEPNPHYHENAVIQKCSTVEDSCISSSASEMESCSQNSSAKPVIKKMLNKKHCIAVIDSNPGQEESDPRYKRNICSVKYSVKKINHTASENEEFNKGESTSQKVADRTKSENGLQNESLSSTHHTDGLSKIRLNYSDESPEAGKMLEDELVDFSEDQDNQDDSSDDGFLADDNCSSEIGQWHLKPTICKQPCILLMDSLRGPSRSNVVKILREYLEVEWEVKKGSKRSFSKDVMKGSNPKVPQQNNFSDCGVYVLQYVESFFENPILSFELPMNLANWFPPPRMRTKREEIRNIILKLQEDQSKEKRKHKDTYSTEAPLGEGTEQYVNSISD
The format is functional.

For test [6], the target named is T7, Sentrin-specific protease 8 (Homo sapiens, UniProt Q96LD8).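 Also: luminescence read-out of SENP8 inhibition, dose-response confirmation following an ultra-high-throughput screen.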
T7 sequence (Q96LD8 whole entry): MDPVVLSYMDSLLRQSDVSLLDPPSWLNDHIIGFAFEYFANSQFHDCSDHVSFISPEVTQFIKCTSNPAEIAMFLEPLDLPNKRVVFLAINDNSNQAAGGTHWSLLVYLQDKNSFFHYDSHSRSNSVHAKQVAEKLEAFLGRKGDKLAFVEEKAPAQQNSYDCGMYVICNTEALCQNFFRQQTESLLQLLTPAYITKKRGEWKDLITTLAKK
The test is classed as functional.

Test [7] deals with T8, Sentrin-specific protease 7 (Homo sapiens, UniProt Q9BQF6).
T8 sequence (Q9BQF6 whole entry): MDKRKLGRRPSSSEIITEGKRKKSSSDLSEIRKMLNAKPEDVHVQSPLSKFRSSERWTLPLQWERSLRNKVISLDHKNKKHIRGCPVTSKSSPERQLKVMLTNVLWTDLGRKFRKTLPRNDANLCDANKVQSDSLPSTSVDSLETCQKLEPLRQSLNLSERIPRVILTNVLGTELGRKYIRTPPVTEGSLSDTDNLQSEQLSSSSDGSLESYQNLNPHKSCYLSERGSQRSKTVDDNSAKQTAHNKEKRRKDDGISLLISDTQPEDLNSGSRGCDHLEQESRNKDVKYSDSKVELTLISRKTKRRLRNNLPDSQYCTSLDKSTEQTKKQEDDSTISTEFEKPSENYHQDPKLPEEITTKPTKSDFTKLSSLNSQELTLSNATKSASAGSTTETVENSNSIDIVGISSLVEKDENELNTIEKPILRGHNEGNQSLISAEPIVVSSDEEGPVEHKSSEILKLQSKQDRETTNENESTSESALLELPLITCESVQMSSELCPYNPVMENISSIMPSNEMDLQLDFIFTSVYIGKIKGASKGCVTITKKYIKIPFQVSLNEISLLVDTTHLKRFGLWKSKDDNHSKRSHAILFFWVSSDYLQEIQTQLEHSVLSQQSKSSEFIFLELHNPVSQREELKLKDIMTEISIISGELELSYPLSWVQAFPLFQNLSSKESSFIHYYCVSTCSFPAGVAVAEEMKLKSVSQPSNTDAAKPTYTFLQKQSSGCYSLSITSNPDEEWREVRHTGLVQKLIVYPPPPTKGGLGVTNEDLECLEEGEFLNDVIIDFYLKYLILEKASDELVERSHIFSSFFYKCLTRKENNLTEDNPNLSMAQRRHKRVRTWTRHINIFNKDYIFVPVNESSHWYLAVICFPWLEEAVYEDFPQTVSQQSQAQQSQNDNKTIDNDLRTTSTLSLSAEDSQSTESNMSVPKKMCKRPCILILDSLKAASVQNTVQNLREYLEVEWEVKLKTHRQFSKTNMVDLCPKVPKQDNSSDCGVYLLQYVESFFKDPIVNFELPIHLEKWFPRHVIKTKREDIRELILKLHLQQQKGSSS
The test is classed as functional.

In the case of `Oc1cc2c(cc1O)[C@H]1c3ccc(O)c(O)c3OC[C@@]1(O)C2`, the AC50 at Caspase-6 was 3.95 µM (active); in test [1] it was 1.53 µM (active); in test [2], 22.4 µM (inconclusive); at Caspase-7, 68.5 µM (active). In addition, the values for the 50% inhibitory concentration (IC50) (on Genome polyprotein; on Protein skinhead-1; in test [3]) were 22.5 µM (active), > 100 µM (inactive) and 67.6 µM (inactive), respectively.

As to `Cn1c(=O)c(C(=O)CSc2nncs2)c(N)n(Cc2ccccc2)c1=O`, the IC50 was 8.53 µM (active) on Major prion protein and > 138 µM (inactive) in the test “cells”.

Take `Cc1ccc(/C=N/N=C/c2ccc(C)s2)s1`: the IC50 on Caspase-3 is 18.5 µM (active); in test [5], 18.7 µM (active); in [6] it was 21.9 µM (active); in test [7] it was 5.6 µM (active). For the same compound, the EC50 in [4] was > 67.5 µM (inactive).
